According to BindingDB's records for doi:10.1016/j.bmcl.2009.09.081 (Lexicon Pharmaceuticals, 2009):

Experiment: Inhibition of deoxycytidine kinase-mediated arabinoside C-induced cytotoxicity

SMILES	EC50 [nM]
NC(=O)c1ccc(-c2cccc(S(=O)(=O)N[C@H]3CC[C@H](n4cc(F)c(N)nc4=O)C3)c2)cc1 [3'-(N-((1S,3S)-3-(4-amino-5-fluoro-2-oxopyrimidin-1(2H)-yl)cyclopentyl)sulfamoyl)biphenyl-4-carboxamide]	5900
Nc1nc(=O)n([C@H]2CC[C@H](NS(=O)(=O)c3cccc(-c4ccc(Cl)cc4Cl)c3)C2)cc1F [N-((1S,3S)-3-(4-amino-5-fluoro-2-oxopyrimidin-1(2H)-yl)cyclopentyl)-2',4'-dichlorobiphenyl-3-sulfonamide]	530
Nc1nc(=O)n([C@H]2CC[C@H](NS(=O)(=O)c3cccc(-c4ccccc4Cl)c3)C2)cc1F [N-((1S,3S)-3-(4-amino-5-fluoro-2-oxopyrimidin-1(2H)-yl)cyclopentyl)-2'-chlorobiphenyl-3-sulfonamide]	430
Nc1nc(=O)n([C@H]2CC[C@H](NC(=O)c3cccc(-c4cccc(Cl)c4)c3)C2)cc1F [N-((1S,3S)-3-(4-amino-5-fluoro-2-oxopyrimidin-1(2H)-yl)cyclopentyl)-3'-chlorobiphenyl-3-carboxamide]	180
Nc1nc(=O)n([C@H]2CC[C@H](NS(=O)(=O)c3cccc(-c4cccc(Cl)c4)c3)C2)cc1F [N-((1S,3S)-3-(4-amino-5-fluoro-2-oxopyrimidin-1(2H)-yl)cyclopentyl)-3'-chlorobiphenyl-3-sulfonamide]	360
Nc1nc(=O)n([C@H]2CC[C@H](NS(=O)(=O)c3cccc(Br)c3)C2)cc1F [N-((1S,3S)-3-(4-amino-5-fluoro-2-oxopyrimidin-1(2H)-yl)cyclopentyl)-3-bromobenzenesulfonamide]	2800
CS(=O)(=O)c1ccc(-c2cccc(S(=O)(=O)N[C@H]3CC[C@H](n4cc(F)c(N)nc4=O)C3)c2)cc1 [N-((1S,3S)-3-(4-amino-5-fluoro-2-oxopyrimidin-1(2H)-yl)cyclopentyl)-4'-(methylsulfonyl)biphenyl-3-sulfonamide]	1800
Cc1cc(Cl)ccc1-c1cccc(C(=O)N[C@H]2CC[C@H](n3cc(F)c(N)nc3=O)C2)c1 [N-((1S,3S)-3-(4-amino-5-fluoro-2-oxopyrimidin-1(2H)-yl)cyclopentyl)-4'-chloro-2'-methylbiphenyl-3-carboxamide]	170
Cc1cc(Cl)ccc1-c1cccc(S(=O)(=O)N[C@H]2CC[C@H](n3cc(F)c(N)nc3=O)C2)c1 [N-((1S,3S)-3-(4-amino-5-fluoro-2-oxopyrimidin-1(2H)-yl)cyclopentyl)-4'-chloro-2'-methylbiphenyl-3-sulfonamide]	290
Nc1nc(=O)n([C@H]2CC[C@H](NC(=O)c3cccc(-c4ccc(Cl)cc4)c3)C2)cc1F [N-((1S,3S)-3-(4-amino-5-fluoro-2-oxopyrimidin-1(2H)-yl)cyclopentyl)-4'-chlorobiphenyl-3-carboxamide]	270
Nc1nc(=O)n([C@H]2CC[C@H](NS(=O)(=O)c3cccc(-c4ccc(Cl)cc4)c3)C2)cc1F [N-((1S,3S)-3-(4-amino-5-fluoro-2-oxopyrimidin-1(2H)-yl)cyclopentyl)-4'-chlorobiphenyl-3-sulfonamide]	240
N#Cc1ccc(-c2cccc(S(=O)(=O)N[C@H]3CC[C@H](n4cc(F)c(N)nc4=O)C3)c2)cc1 [N-((1S,3S)-3-(4-amino-5-fluoro-2-oxopyrimidin-1(2H)-yl)cyclopentyl)-4'-cyanobiphenyl-3-sulfonamide]	390
COc1ccc(-c2cccc(C(=O)N[C@H]3CC[C@H](n4cc(F)c(N)nc4=O)C3)c2)cc1 [N-((1S,3S)-3-(4-amino-5-fluoro-2-oxopyrimidin-1(2H)-yl)cyclopentyl)-4'-methoxybiphenyl-3-carboxamide]	100
COc1ccc(-c2cccc(S(=O)(=O)N[C@H]3CC[C@H](n4cc(F)c(N)nc4=O)C3)c2)cc1 [N-((1S,3S)-3-(4-amino-5-fluoro-2-oxopyrimidin-1(2H)-yl)cyclopentyl)-4'-methoxybiphenyl-3-sulfonamide]	300
Cc1ccc(-c2cccc(S(=O)(=O)N[C@H]3CC[C@H](n4cc(F)c(N)nc4=O)C3)c2)cc1 [N-((1S,3S)-3-(4-amino-5-fluoro-2-oxopyrimidin-1(2H)-yl)cyclopentyl)-4'-methylbiphenyl-3-sulfonamide]	500
Nc1nc(=O)n([C@H]2CC[C@H](NS(=O)(=O)c3ccc(Br)cc3)C2)cc1F [N-((1S,3S)-3-(4-amino-5-fluoro-2-oxopyrimidin-1(2H)-yl)cyclopentyl)-4-bromobenzenesulfonamide]	11000
Nc1nc(=O)n([C@H]2CC[C@H](NS(=O)(=O)c3ccc([N+](=O)[O-])cc3)C2)cc1F [N-((1S,3S)-3-(4-amino-5-fluoro-2-oxopyrimidin-1(2H)-yl)cyclopentyl)-4-nitrobenzenesulfonamide]	16000
Nc1nc(=O)n([C@H]2CC[C@H](NS(=O)(=O)c3ccccc3)C2)cc1F [N-((1S,3S)-3-(4-amino-5-fluoro-2-oxopyrimidin-1(2H)-yl)cyclopentyl)benzenesulfonamide]	17000
Nc1nc(=O)n([C@H]2CC[C@H](NC(=O)c3cccc(-c4ccccc4)c3)C2)cc1F [N-((1S,3S)-3-(4-amino-5-fluoro-2-oxopyrimidin-1(2H)-yl)cyclopentyl)biphenyl-3-carboxamide]	910
Nc1nc(=O)n([C@H]2CC[C@H](NS(=O)(=O)c3cccc(-c4ccccc4)c3)C2)cc1F [N-((1S,3S)-3-(4-amino-5-fluoro-2-oxopyrimidin-1(2H)-yl)cyclopentyl)biphenyl-3-sulfonamide]	600
Nc1nc(=O)n([C@H]2CC[C@H](NS(=O)(=O)c3ccc(-c4ccccc4)cc3)C2)cc1F [N-((1S,3S)-3-(4-amino-5-fluoro-2-oxopyrimidin-1(2H)-yl)cyclopentyl)biphenyl-4-sulfonamide]	5500
